In publication doi:10.1101/2024.08.19.608619, “Discovery of potent SARS-CoV-2 nsp3 macrodomain inhibitors uncovers lack of translation to cellular antiviral response” (bioRxiv, 2024):
pEC50: −log10 of the molar value. ≈ marks a conversion by molar mass, not a printed value. Where “and” joins values, the source holds several entries; their conditions need not be identical. Equal values may be shown once. Read-outs that look alike come from different tables or passages of the source.

Assays:
iPSC pneumocytes = iPSC pneumocytes cytotoxicity; type: cell-based; details: for perc_max_measured: highest measured response of the dose series; for perc_min_measured: lowest measured response of the dose series
Description: Supplement media-1.zip/Cytotoxicity.csv, table | column: cc10; cc50; perc_min_measured; perc_max_measured

in vitro [1] = assay: in vitro; set-up: Cytotoxicity in iPSC-derived pneumocytes, CC50; details: human, ipsc-derived pneumocytes, read-out: 50.0
Description: Finally, we consider the hypothesis that interferon response triggers ADP-ribosylation, thus profiling the compounds in enhanced and physiologically relevant interferon environments could reveal detectable antiviral effects. […] Furthermore, HeLa-ACE2 cells, and all cancerous cell lines, display defective innate immune response ([1]). As such, we also assess our compound in a primary-like iPSC-derived pneumocyte system (Figure 7C), showing likewise a lack of antiviral activity in this physiologically relevant innate immunity system.

[2] = Hepatic microsomal stability, HLM; type: in vitro ADME, human; details: In vitro human liver microsomal stability; for perc_remaining_no_cofactor: no cofactor
[3] = In vitro kinetic solubility; details: In vitro kinetic solubility, ph 7.4
[4] = system: SARS-CoV-2, isolate USA-WA1/2020; assay: microbe, parasite or virus in culture; type: cell-based; details: HeLa-ACE2 SARS-CoV-2 antiviral effect without P-gp inhibitor; for perc_max_measured: maximum measured response of dose series; for perc_min_measured: minimum measured response of dose series; for pEC50: read-out: ec50; for EC90: read-out: ec90
HeLa-ACE2 cells = details: protocol HeLa-ACE2 cytotoxicity; for perc_max_measured: highest measured response of the dose series; for perc_min_measured: lowest measured response of the dose series
[5] = Permeability Papp (AB) MDR1/MDCKII; details: for papp_a_to_b_mean / papp_b_to_a_mean / efflux_ratio / perc_recovery_a_to_b_mean / perc_recovery_b_to_a_mean: In vitro MDR1-MDCKII permeability; for papp_a_to_b_mean: A to B; for papp_b_to_a_mean: B to A; for perc_recovery_a_to_b_mean / perc_recovery_a_to_b_inhibitor_mean: recovery A to B; for perc_recovery_b_to_a_mean / perc_recovery_b_to_a_inhibitor_mean: recovery B to A; for perc_recovery_a_to_b_inhibitor_mean / perc_recovery_b_to_a_inhibitor_mean: MDR1-MDCKII
SARS-CoV-2 = assay: Antiviral effect in iPSC-derived pneumocyte system; type: cell-based; details: iPSC pneumocytes SARS-CoV-2 antiviral effect; for perc_max_measured: maximum measured response of dose series; for perc_min_measured: minimum measured response of dose series
LogD = details: pH 7.4; In vitro LogD
[6] = Hepatic microsomal stability, MLM; type: in vitro ADME
in vitro [7] = details: human, hela-ace2 cells, 50.0
[8] = In vitro mouse liver microsomal stability
[9] = In vitro mouse liver microsomal stability, no cofactor
[10] = protocol iPSC pneumocytes cytotoxicity
[11] = In vitro mouse liver microsomal stability; no cofactor

## CC(C)[C@@H](Nc1ncnc2[nH]c(-c3cnn(C)c3C#N)cc12)c1ccc2c(c1)S(=O)(=O)CCC2 (single isomer, unassigned) [ASAP-0011147]
iPSC pneumocytes
  CC50: > 50 µM
  cc10: > 50.0 µM
  perc_max_measured: 111.987%
  perc_min_measured: 95.623%
In vitro [1]; ASAP-0008327-001=ASAP-0011147-001
  CC50: > 50 µM
[2]
  clint: 516.0 µL/min/mg
  perc_remaining: 0.0%
  t_half: 3.2 min
  perc_remaining_no_cofactor: 101.0%
[3]
  solubility_mean: 26 µM (≈ 12.4 µg/mL)
[4]
  perc_max_measured: 114.163%
  perc_min_measured: 4.545%
  pEC50: 5.45
  EC90: 13.2 µM
HeLa-ACE2 cells
  CC50: > 20 µM
  cc10: > 20.0 µM
  perc_max_measured: 92.283%
  perc_min_measured: 75.829%
[5]; mean
  papp_a_to_b_mean: 1.82 ×10⁻⁶ cm/s
  perc_recovery_a_to_b_mean: 54.6%
[5]; no inhibitor
  papp_a_to_b_mean: 0.087 ×10⁻⁶ cm/s
  papp_b_to_a_mean: 7.5 ×10⁻⁶ cm/s
  efflux_ratio: 85.7
  perc_recovery_a_to_b_mean: 82.5%
  perc_recovery_b_to_a_mean: 96.5%
[5]; with inhibitor Verapamil
  perc_recovery_a_to_b_inhibitor_mean: 63.2%
  perc_recovery_b_to_a_inhibitor_mean: 72.3%
SARS-CoV-2
  pEC50: 6.39
  EC90: 13 µM
  perc_max_measured: 75.192%
  perc_min_measured: 0.111%
LogD
  logd: 3.7
[6]; [8]
  clint: 709.0 µL/min/mg
  perc_remaining: 0.0%
  t_half: 2.4 min
[6]; [9]
  perc_remaining_no_cofactor: 106.0%
In vitro [7]
  CC50 at 24 h: > 20 µM

## CC(C)[C@H](Nc1ncnc2[nH]c(-c3cnn(CC(N)=O)c3)cc12)c1ccc2c(c1)S(=O)(=O)CCC2 (single isomer, unassigned) [ASAP-0011428]
iPSC pneumocytes
  CC50: > 50 µM
  cc10: > 50.0 µM
  perc_max_measured: 106.229%
  perc_min_measured: 92.999%
In vitro [1]; ASAP-0008327-001=ASAP-0011428-001
  CC50: > 50 µM
[2]
  clint: 240.0 µL/min/mg
  perc_remaining: 2.0%
  t_half: 7.0 min
  perc_remaining_no_cofactor: 115.0%
[3]
  solubility_mean: 338 µM (≈ 167 µg/mL)
[4]
  perc_max_measured: 108.399%
  perc_min_measured: 92.21%
  pEC50: < 4.70
  EC90: > 20 µM
HeLa-ACE2 cells
  CC50: > 20 µM
  cc10: > 20.0 µM
  perc_max_measured: 96.287%
  perc_min_measured: 76.492%
[5]; mean
  papp_a_to_b_mean: 1.98 ×10⁻⁶ cm/s
  perc_recovery_a_to_b_mean: 85.9%
[5]; no inhibitor
  papp_a_to_b_mean: 0.0832 ×10⁻⁶ cm/s
  papp_b_to_a_mean: 0.072 ×10⁻⁶ cm/s
  efflux_ratio: 0.9
  perc_recovery_a_to_b_mean: 65.5%
  perc_recovery_b_to_a_mean: 72.9%
[5]; with inhibitor Verapamil
  perc_recovery_a_to_b_inhibitor_mean: 73.2%
  perc_recovery_b_to_a_inhibitor_mean: 79.8%
SARS-CoV-2
  pEC50: < 4.30
  EC90: > 50 µM
  perc_max_measured: 119.318%
  perc_min_measured: 70.174%
LogD
  logd: 2.1
[6]; [8]
  clint: 39.0 µL/min/mg
  perc_remaining: 53.0%
  t_half: 42.6 min
[6]; [9]
  perc_remaining_no_cofactor: 98.0%
In vitro [7]
  CC50 at 24 h: > 20 µM

## CC(C)[C@@H](Nc1ncnc2[nH]c(-c3cnn(C)c3)cc12)c1ccc2c(c1)S(=O)(=O)CCC2 (single isomer, unassigned) [ASAP-0012329]
iPSC pneumocytes
  CC50: > 50 µM
  cc10: 30.402 µM
  perc_max_measured: 108.573%
  perc_min_measured: 85.97%
In vitro [1]; ASAP-0008327-001=ASAP-0012329-001
  CC50: > 50 µM
[2]
  clint: 405.0 µL/min/mg
  perc_remaining: 0.0%
  t_half: 4.1 min
  perc_remaining_no_cofactor: 105.0%
[3]
  solubility_mean: 111 µM (≈ 50 µg/mL)
[4]
  perc_max_measured: 119.22%
  perc_min_measured: 72.714%
  pEC50: < 4.70
  EC90: > 20 µM
HeLa-ACE2 cells
  CC50: > 20 µM
  cc10: > 20.0 µM
  perc_max_measured: 91.281%
  perc_min_measured: 71.036%
[5]; no inhibitor
  papp_b_to_a_mean: 3.9 ×10⁻⁶ cm/s and 5.0 ×10⁻⁶ cm/s
  efflux_ratio: 40.3 and 73.5
  perc_recovery_a_to_b_mean: 72.3% and 98.8% and 68.0%
  perc_recovery_b_to_a_mean: 79.2% and 106.0%
[5]; with inhibitor Cyclosporin A
  perc_recovery_a_to_b_inhibitor_mean: 77.4%
  perc_recovery_b_to_a_inhibitor_mean: 63.1%
[5]; with inhibitor Verapamil
  perc_recovery_a_to_b_inhibitor_mean: 104.0%
  perc_recovery_b_to_a_inhibitor_mean: 96.9%
SARS-CoV-2
  pEC50: 5.12
  EC90: > 50 µM
  perc_max_measured: 103.795%
  perc_min_measured: 0.206%
LogD
  logd: 3.2
[6]; [8]
  clint: 140.0 µL/min/mg
  perc_remaining: 10.0%
  t_half: 11.9 min
[6]; [9]
  perc_remaining_no_cofactor: 102.0%
In vitro [7]
  CC50 at 24 h: > 20 µM

## CC(C)[C@@H](Nc1ncnc2[nH]c(-c3cnn(CC(N)=O)c3)cc12)c1ccc2c(c1)OCCO2 [ASAP-0008288]
iPSC pneumocytes; [10]
  CC50: > 50 µM
  cc10: > 50.0 µM
  perc_max_measured: 102.79%
  perc_min_measured: 85.436%
In vitro [1]; ASAP-0008327-001=ASAP-0008288-001
  CC50: > 50 µM
[2]
  clint: 99.0 µL/min/mg
  perc_remaining: 20.0%
  t_half: 16.9 min
  perc_remaining_no_cofactor: 103.0%
[3]
  solubility_mean: 345 µM (≈ 154 µg/mL)
[4]
  perc_max_measured: 122.799%
  perc_min_measured: 73.654%
  pEC50: < 4.30
  EC90: > 50 µM
HeLa-ACE2 cells
  CC50: > 50 µM
  cc10: > 50.0 µM
  perc_max_measured: 128.866%
  perc_min_measured: 114.308%
[5]; mean
  papp_a_to_b_mean: 0.9 ×10⁻⁶ cm/s
  perc_recovery_a_to_b_mean: 89.0%
SARS-CoV-2
  pEC50: 4.43
  EC90: > 50 µM
  perc_max_measured: 96.462%
  perc_min_measured: 23.083%
LogD
  logd: 0.9
[6]; [8]
  clint: 41.0 µL/min/mg
  perc_remaining: 54.0%
  t_half: 41.1 min
[6]; [11]
  perc_remaining_no_cofactor: 87.0%
In vitro [7]
  CC50 at 24 h: > 50 µM

## CNC(=O)c1cc2c(N[C@@H](c3ccc4c(c3)OCCO4)C(C)C)ncnc2[nH]1 [ASAP-0008348]
iPSC pneumocytes; [10]
  CC50: > 50 µM
  cc10: > 50.0 µM
  perc_max_measured: 98.804%
  perc_min_measured: 52.012%
In vitro [1]; ASAP-0008327-001=ASAP-0008348-001
  CC50: > 50 µM
[2]
  clint: 79.0 µL/min/mg
  perc_remaining: 23.0%
  t_half: 21.1 min
  perc_remaining_no_cofactor: 92.0%
[3]
  solubility_mean: 380 µM (≈ 145 µg/mL)
[4]
  perc_max_measured: 114.293%
  perc_min_measured: 64.264%
  pEC50: < 4.30
  EC90: > 50 µM
HeLa-ACE2 cells
  CC50: > 50 µM
  cc10: > 50.0 µM
  perc_max_measured: 108.404%
  perc_min_measured: 99.225%
[5]; mean
  papp_a_to_b_mean: 1.96 ×10⁻⁶ cm/s
  perc_recovery_a_to_b_mean: 86.8%
SARS-CoV-2
  pEC50: < 4.30
  EC90: > 50 µM
  perc_max_measured: 153.61%
  perc_min_measured: 91.144%
LogD
  logd: 2.76
[6]; [8]
  clint: 55.0 µL/min/mg
  perc_remaining: 43.0%
  t_half: 30.5 min
[6]; [11]
  perc_remaining_no_cofactor: 112.0%
In vitro [7]
  CC50 at 24 h: > 50 µM
